Test results published in patent publication US20240327392A1, “HETEROCYCLOALKYL-SUBSTITUTED POLYHETEROAZOLE DERIVATIVES AS MEDICAMENTS FOR TREATING AND/OR PREVENTING RS VIRUS INFECTIONS” (ALBIUS SCIENCES ALPHA PRIVATE LIMITED, priority 2021, published 2024).

tested on: human RS virus A2 strain; assay: In vitro test for anti-RS virus proliferation inhibitory activity (quantitative RT-PCR of RS virus RNA copy number in infected Vero cells); format: cell-based; settings: 72 h; Vero cells infected with human RS virus A2 strain, 3 days of incubation, RS virus N gene RNA copy number by quantitative RT-PCR; read-out: Anti-RS virus Activity
Method: A mixture of Vero cells (3.4×10^5 cells/mL) and human RS virus A2 strain (1.7×10^4 TCID50/mL) (EMEM medium supplemented with 10% FCS) was added to a 96-well plate at 50 μL/well, and the 10% FCS-supplemented EMEM medium adjusted to the desired final concentration of the compounds to be tested was added at 50 μL/well, followed by incubating the plate at 37° C. in the presence of 5% CO2 at 37° C. After 3 days of incubation, the supernatant was removed, the cells were washed with PBS(−), and the cell lysis buffer supplied with the SingleShot (registered trademark) Cell Lysis Kit (Bio-Rad) was added dropwise at 50 μL/well to lysis the cells thereby providing the cell lysate.
Human RS virus RNA copy number in the cell lysate was determined by quantitative RT-PCR using iTaq Universal SYBR Green One-Step Kit (Bio-Rad). Specifically, primers targeting human RS virus N gene (Rameix-Welti et al, Nat Commun5: 5104, 2014. doi: 10.1038/ncomms6104) was used to prepare the reaction solution according to the instructions provided with the kit, and a 96-well PikoReal Real-Time PCR System (TCR0096, Thermo Fisher Scientific) was used to detect PCR reaction and signal assay.
The copy number was calculated by the relative method using the comparative Ct method using compound-free virus-infected cells as controls.

Row | SMILES | IC50 [µM]
1 | O=S(=O)(Cc1ccccc1)N1CCC[C@H]1c1nc(CCCc2ccccc2)no1 [Compound 1E, 3-(3-phenylpropyl)-5-[(2S)-1-benzylsulfonylpyrrolidin-2-yl]-1,2,4-oxadiazole] | 10 to 50
2 | O=S(=O)(C1CCCCC1)N1CCCC[C@H]1c1nc(CCCc2ccccc2)no1 [Compound 2B, 3-(3-phenylpropyl)-5-[(2S)-1-cyclohexylsulfonylpiperidin-2-yl]-1,2,4-oxadiazole] | < 10
3 | CC(C)(C)OC(=O)N1CCCC[C@H]1c1nc(CCCc2ccccc2)no1 [Compound 2-1, 3-(3-phenylpropyl)-5-[(2S)-1-tert-butoxycarbonylpiperidin-2-yl]-1,2,4-oxadiazole] | 10 to 50
4 | O=C(N1CCC[C@H]1c1nc(CCCc2ccccc2)no1)C(F)(F)F [1C′, 3-(3-phenylpropyl)-5-[(2S)-1-trifluoroacetylpyrrolidin-2-yl]-1,2,4-oxadiazole] | < 10
5 | CS(=O)(=O)N1C[C@H](O)C[C@H]1c1nc(CCCc2ccccc2)no1 [Compound 3C, 3-(3-phenylpropyl)-5-[(2S,4R)-4-hydroxy-1-methanesulfonylpyrrolidin-2-yl]-1,2,4-oxadiazole] | > 50
6 | O=S(=O)(c1ccccc1)N1C[C@H](O)C[C@H]1c1nc(CCCc2ccccc2)no1 [Compound 3D, 3-(3-phenylpropyl)-5-[(2S,4R)-1-benzenesulfonyl-4-hydroxypyrrolidin-2-yl]-1,2,4-oxadiazole] | > 50

same assay, conditions: 72 h; Vero cells infected with human RS virus A2 strain, 3 days of incubation, RS virus RNA copy number by quantitative RT-PCR; read-out: Anti-RS virus Activity

Row | SMILES | IC50 [µM]
7 | CC(C)NC(=O)N1CCCC[C@H]1c1nc(CCc2ccccc2)no1 [Compound 10G, (S)—N-isopropyl-2-(3-phenethyl-1,2,4-oxadiazol-5-yl) piperidine-1-carboxamide] | > 50
8 | CC(C)(C)OC(=O)N1C[C@H](c2ccccc2)C[C@H]1c1nnc(CCCc2ccccc2)[nH]1 [Compound 19-1, Tert-butyl (2S,4S)-4-phenyl-2-(5-(3-phenylpropyl)-4H-1,2,4-triazol-3-yl)pyrrolidine-1-carboxylate] | < 10
9 | COC(=O)c1nc([C@@H]2CCCCN2S(=O)(=O)C2CCCCC2)[nH]c1C [Compound 38B, Methyl (S)-2-(1-(cyclohexylsulfonyl)piperidin-2-yl)-5-methyl-1H-Imidazole-4-carboxylate] | 10 to 50
10 | COC(=O)N1CCC[C@H]1c1nc(CCCc2ccccc2)no1 [Compound 1K, Methyl (S)-2-(3-(3-phenylpropyl)-1,2,4-oxadiazol-5-yl) pyrrolidine-1-carboxylate] | 10 to 50
11 | CN(C)c1ccc(S(=O)(=O)N2CC3(CC3)C[C@H]2c2nc(CCCc3ccccc3)no2)cc1 [Compound 5AK, (S)-N,N-dimethyl-4-((6-(3-(3-phenylpropyl)-1,2,4-oxadiazole-5-yl)-5-azaspiro[2.4]heptan-5-yl)sulfonyl)aniline] | < 10
12 | O=S(=O)(c1ccc(F)cc1)N1CC2(CC2)C[C@H]1c1nc(CCCc2ccccc2)no1 [Compound 5AJ, (S)-5-(5-((4-fluorophenyl)sulfonyl)-5-azaspiro[2.4]heptan-6-yl)-3-(3-phenylpropyl)-1,2,4-oxadiazole] | < 10
13 | O=C(NCc1ccccc1)N1CCC[C@H]1c1nc(CCCc2ccccc2)no1 [Compound 1F, (S)—N-Benzyl-2-(3-(3-phenylpropyl)-1,2,4-oxadiazol-5-yl) pyrrolidine-1-carboxamide] | 10 to 50
14 | COc1ccc(S(=O)(=O)N2CC(CC3CCC3)CC2c2nc(CCCc3ccccc3)no2)cc1 (stereo not drawn) [Compound 6AI, 5-(4-(cyclobuthylmethyl)-1-((4-methoxyphenyl)sulfonyl)pyrrolidin-2-yl)-3-(3-phenylpropyl)-1,2,4-oxadiazole] | < 10
15 | NC(=O)[C@H]1C[C@@H](c2nc(CCCc3ccccc3)no2)N(S(=O)(=O)c2ccc(F)cc2)C1 [Compound 42AJ, (3S,5S)-1-((4-fluorophenyl)sulfonyl)-5-(3-(3-phenylpropyl)-1,2,4-oxadiazol-5-yl)pyrrolidine-3-carboxamide] | 10 to 50
16 | O=S(=O)(c1ccccc1)N1CC(CC2CCC2)CC1c1nc(CCCc2ccccc2)no1 (stereo not drawn) [Compound 6D, 3-(3-phenylpropyl)-5-(1-benzenesulfonyl-4-cyclobutylmethylpyrrolidin-2-yl)-1,2,4-oxadiazole] | < 10
17 | COC(=O)c1nc([C@@H]2CCCCN2S(=O)(=O)C2CCCCC2)sc1C [Compound 35B, Methyl (S)-2-(1-(cyclohexylsulfonyl)piperidin-2-yl)-5-methylthiazole-4-carboxylate] | 10 to 50
18 | CCOC(=O)C1CCN(S(=O)(=O)N2C[C@H](c3ccccc3)C[C@H]2c2nc(CCCc3ccccc3)no2)CC1 [Compound 7AC, ethyl 1-(((2S,4S)-4-phenyl2-(3-(3-phenylpropyl)-1,2,4-oxadiazole-5-yl)pyrrolidin-1-yl)sulfonyl)piperidin-4-carboxylate] | 10 to 50
19 | CC(C)(C)OC(=O)N1CC(CS(=O)(=O)N2C[C@H](c3ccccc3)C[C@H]2c2nc(CCCc3ccccc3)no2)C1 [Compound 7AM, tert-buthyl 3-((((2S,4S)-4-phenyl2-(3-(3-phenylpropyl)-1,2,4-oxadiazole-5-yl)pyrrolidin-1-yl)sulfonyl)methyl)azetidin-1-carboxylate] | < 10
20 | O=S(=O)(c1ccc(F)cc1)N1C[C@H](F)C[C@H]1c1nc(CCCc2ccccc2)no1 [Compound 8AJ, 5-((2S,4R)-4-fluoro-1-((4-fluorophenyl)sulfonyl)pyrrolidin-2-yl)-3-(3-phenylpropyl)-1,2,4-oxadiazole] | < 10
21 | CN(C)c1ccc(S(=O)(=O)N2CC(CC3CCC3)CC2c2nc(CCCc3ccccc3)no2)cc1 (stereo not drawn) [Compound 6AK, 4-((4-(cyclobuthylmethyl)-2-(3-(3-phenylpropyl)-1,2,4-oxadiazole-5-yl)pyrrolidin-1-yl)sulfonyl)-N,N-dimethylaniline] | < 10
22 | O=S(=O)(N1CCOCC1)N1CC(CC2CCC2)CC1c1nc(CCCc2ccccc2)no1 (stereo not drawn) [Compound 6AE, 4-((4-(cyclobuthylmethyl)-2-(3-(3-phenylpropyl)-1,2,4-oxadiazole-5-yl)pyrrolidin-1-yyl)sulfonyl)morpholine] | 10 to 50
23 | O=C(Cc1ccccc1)N1CCC[C@H]1c1nc(CCCc2ccccc2)no1 [Compound 1P, (S)-2-Phenyl-1-(2-(3-(3-phenylpropyl)-1,2,4-oxadiazol-5-yl)pyrrolidin-1-yl) ethan-1-one] | < 10
24 | CC(C)(C)OC(=O)NCc1ccc(CCCc2noc([C@@H]3CCCCN3S(=O)(=O)C3CCCCC3)n2)cc1 [Compound 30B] | 10 to 50
25 | CC(C)CCN1CCCC[C@H]1c1nc(CCCc2ccccc2)no1 [Compound 2T, (S)-5-(1-isopentylpiperidin-2-yl)-3-(3-phenylpropyl)-1,2,4-oxadiazole] | 10 to 50
26 | CC(C)(C)OC(=O)NCc1noc([C@@H]2C[C@@H](c3ccccc3)CN2S(=O)(=O)c2ccc(F)cc2)n1 [Compound 43AJ, Tert-butyl ((5-((2S,4S)-1-((4-fluorophenyl)sulfonyl)-4-phenylpyrrolidin-2-yl)-1,2,4-oxadiazol-3-yl)methyl) carbamate] | 10 to 50

same assay, conditions: Vero, 72 h, read-out: Anti-RS virus Activity

Row | SMILES | IC50 [µM]
27 | O=S(=O)(N1CCCCC1)N1CCCC[C@H]1c1nc(CCCc2ccccc2)no1 [Compound 2AD, (S)-3-(3-phenylpropyl)-5-(1-(piperidine-1-ylsulfonyl)piperidin-2-yl)-1,2,4-oxadiazole] | < 10
